Test [1] deals with T1, human prostaglandin E2 (subtype EP2) receptor (Homo sapiens, UniProt P43116).
T1 construct: host or cells: cells in a cell culture plate
The experiment in a line: cAMP antagonism assay (HTRF cAMP detection, in presence of PGE2). In kind it is cell-based. Particulars: cAMP antagonism test. An excerpt: 1. Detection of the Antagonism of the Human Prostaglandin E2 (Subtype EP2) Receptor Signal
1.1 Principle of Detection
(§1) The binding of PGE2 to the EP2 subtype of the human PGE2 receptor induces activation of membrane-associated adenylate cyclases and leads to the formation of cAMP. In the presence of the phosphodiesterase inhibitor IBMX, cAMP which has accumulated due to this stimulation and been released by cell lysis is employed in a competitive detection method. In this assay, the cAMP in the lysate competes with cAMP-XL665 for binding of an Eu cryptate-labelled anti-cAMP antibody.
(§2) The two signals are measured in a suitable measuring instrument with a time lag, i.e. after the background fluorescence has declined.
1.2.1 Antagonism Assay (Data for Each Well of a 384-Well Plate):
(§3) The substance solutions (0.75 μl) introduced into an assay plate and 30% DMSO are dissolved in 16 μl of a KRSB+IBMX stimulation solution (1×Krebs-Ringer Bicarbonate Buffer; Sigma-Aldrich # K-4002; including 750 μM 3-isobutyl-1-methylxanthine Sigma-Aldrich # I-7018), and then 15 μl thereof are transferred into a media-free cell culture plate which has been washed with KRSB shortly beforehand.
After preincubation at room temperature (RT) for 30 minutes, 5 μl of a 4×PGE2 solution (11 nM) are added, and incubation is carried out in the presence of the agonist at RT for a further 60 min (volume: ˜20 μl) before the reaction is then stopped by adding 5 μl of lysis buffer and incubated at RT for a further 20 min (volume: ˜25 μl). The cell lysate is then transferred into a measuring plate and measured in accordance with the manufacturer's information (cyclic AMP kit Cisbio International # 62AMPPEC).

The target of test [2] is T1, human prostaglandin E2 (subtype EP2) receptor. The experiment in a line: cAMP agonism assay (HTRF cAMP detection). The settings on record: cAMP agonism test; read-out: Agonism [ED50, μm]. The class given is cell-based. The procedure: as §1, §2
1.2.2 Agonism Assay (Data for Each Well of a 384-Well Plate):
as §3
After incubation at room temperature (RT; volume: ˜15 μl) for 60 minutes, the reaction is then stopped by adding 5 μl of lysis buffer and incubated at RT for a further 20 min (volume: ˜20 μl). The cell lysate is then transferred into a measuring plate and measured in accordance with the manufacturer's information (cyclic AMP kit Cisbio International # 62AMPPEC).

A further test has as its system cumulus-oocyte complexes. The experiment in a line: Cumulus expansion assay in vitro. The settings on record: concentration of 100-200 μm; test substances compete with PGE2. In kind it is cell-based, mice. The procedure:
2.2 Cumulus Expansion Assay in Vitro
Folliculogenesis is induced in immature female mice (strain: CD1 (ICR) from Charles River) at an age of 14-18 days by a single dose (intraperitoneal) of 10 I.U. of PMSG (Pregnant Mare Serum Gonadotropin; Sigma G-4877, Lot 68H0909). 47-50 hours after the injection, the ovaries are removed and the cumulus-oocyte complexes are removed. The cumulus complex is not yet expanded at this stage.
The cumulus-oocyte complexes are then incubated with prostaglandin E2 (PGE2) (1 μM), vehicle control (ethanol) or test substances for 20-24 hours. Medium: alpha-MEM medium with 0.1 mM IBMX, pyruvates (0.23 mM) glutamines (2 mM), pen/strep 100 IU/ml pen. and 100 μg/ml strep. and HSA (8 mg/ml). Cumulus expansion is then established through the division into four stages (according to Vanderhyden et al. Dev Biol. 1990 August; 140 (2):307-317).

T1 sequence (P43116 whole entry): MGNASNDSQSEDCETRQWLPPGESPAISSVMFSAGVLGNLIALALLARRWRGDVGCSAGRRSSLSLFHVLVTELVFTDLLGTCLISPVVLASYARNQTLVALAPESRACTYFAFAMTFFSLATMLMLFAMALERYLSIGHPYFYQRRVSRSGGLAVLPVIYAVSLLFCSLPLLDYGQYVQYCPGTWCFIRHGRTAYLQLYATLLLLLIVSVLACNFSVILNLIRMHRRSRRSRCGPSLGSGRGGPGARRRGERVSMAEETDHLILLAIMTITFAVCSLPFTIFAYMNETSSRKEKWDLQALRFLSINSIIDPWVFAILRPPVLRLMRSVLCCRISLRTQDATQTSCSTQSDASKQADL

With `O=C(O)CC1c2ccccc2-c2ccc(OCCCCOc3cccc(O)c3)cc21` (racemic) [VI/3, (R/S) {2-[4-(3-Hydroxyphenoxy)butoxy]-9H-fluoren-9-yl}acetic acid], the IC50 in test [1] worked out at 6.4 µM. The EC50 in test [2] is over 19 µM. Also, in the test with cumulus-oocyte complexes, the “suppression of cumulus expansion” value is on record as about 50%.

As to `CC(=O)Nc1cccc(OCCCCOc2ccc3c(c2)C(CC(=O)O)c2ccccc2-3)c1` (racemic) [VI/4, (R/S) {2-[4-(3-Acetylaminophenoxy)butoxy]-9H-fluoren-9-yl}acetic acid], the IC50 in test [1] was over 19 µM. Further, the EC50 in test [2] was 6.3 µM.

For `CC(C)Oc1ccc2c(=O)c3cc(C(=O)O)ccc3oc2c1` [AH6809, reference compound], the IC50 in test [1] was over 19 µM. Besides, the EC50 in test [2] was over 19 µM. In addition, the “suppression of cumulus expansion” value in the test with cumulus-oocyte complexes is recorded as “about 20%”.

Regarding `CCOC(=O)Cn1c2ccccc2c2ccc(OCCCCOc3cccc(C(=O)OC)c3)cc21` [XII/5, Methyl 3-[4-(9-ethoxycarbonylmethyl-9H-carbazol-2-yloxy)butoxy]benzoate], the IC50 in test [1] is over 19 µM. Moreover, in test [2], the EC50 came to 6.3 µM.

Regarding `CC(=O)c1cccc(OCCCCOc2ccc3c4ccccc4n(CC(=O)O)c3c2)c1` [XIII/12, {2-[4-(3-acetylphenoxy)butoxy]carbazol-9-yl}acetic acid], the IC50 in test [1] was 6.3 µM. In test [2], the EC50 is over 19 µM.

As for `O=C(O)Cn1c2ccccc2c2ccc(OCCCCOc3ccc(-n4cccc4)cc3)cc21` [XIII/22, {2-[4-(4-pyrrol-1-ylphenoxy)butoxy]carbazol-9-yl}acetic acid], in test [1], the IC50 stood at 1.2 µM. Besides, in test [2], the EC50 was over 19 µM.

Take `O=C(O)CCn1c2ccccc2c2ccc(OCCCCOc3ccc4c(c3)CCC(=O)N4)cc21` [XIII/67, 3-{2-[4-(2-oxo-1,2,3,4-tetrahydroquinolin-6-yloxy)butoxy]carbazol-9-yl}propionic acid]: the IC50 in test [1] amounted to 3.2 µM. In addition, in test [2], the EC50 was over 19 µM.

Take `O=C(O)Cn1c2ccccc2c2ccc(OCCCOc3ccccc3)cc21` [XIII/85, [2-(3-phenoxypropoxy)carbazol-9-yl]acetic acid]: the IC50 in test [1] is 6.7 µM. In addition, the EC50 in test [2] is over 19 µM.

`O=C(O)Cn1c2ccccc2c2ccc(OCCCCCOc3ccccc3)cc21` [XIII/140, [2-(5-phenoxypentyloxy)carbazol-9-yl]acetic acid]: in test [1], the IC50 was 6.7 µM. The EC50 in test [2] is over 19 µM.

Values taken from patent US20070197524A1, “Fluorenes and carbazoles as ligands of the EP2 receptor” (priority 2005, published 2007).
